Test results reported in PubChem BioAssay AID2060897 (Molecular Pharmacology Branch, DTP, NCI, 2025).

System: 966289-007-R4-J1-PDC complex spheroid viability
Assay: Anticancer human tumor 966289-007-R4-J1-PDC patient-derived pancreatic adenocarcinoma cell line growth inhibition [RAS]
Conditions: for IC50: curve of first compound; for viability, T/C: stronger effect = lower value
Excerpt: RAS pathway inhibitors in Combinations in Complex Spheroids
A high-throughput screen of multi-cell type tumor spheroids was designed to identify active combinations of RAS pathway inhibitors and targeted small molecules. Complex spheroids include a stromal component modeled by human endothelial cells (HUVEC) and fibroblasts modeled by human mesenchymal stem cells (MSCs). The concentration ranges selected for each drug and investigational agent were based upon clinically achievable concentrations if the clinical Cmax of the agent was known.
Compounds. The drugs and investigational agents: abemaciclib (NSC768073), cobimetinib (NSC768068), divarasib (GDC6063, NSC841802), docetaxel (NSC628503), GDC-1971 (RLY-1971, NSC841576), gemcitabine (NSC613327), inavolisib (NSC800729), ipatasertib (NSC767898), KB-0742 (NSC834161), MRTX-1133 (NSC836407), osimertinib (NSC779217), RMC-4630 (NSC839698), RMC-6236 (NSC851965), RMC-6291 (NSC852671), Ro-3306 (NSC812927), sapanisertib (NSC764658), SN-38 (NSC673596), staurosporine (NSC755774), SY5609 (NSC837396), and tovorafenib (DAY101, NSC766906), were obtained from the National Cancer Institute (NCI) Developmental Therapeutics Program Chemical Repository. The FDA-approved anticancer drug set is available from the NCI Developmental Therapeutics Program. […] The stock solutions were prepared in dimethyl sulfoxide (DMSO, Sigma-Aldrich, St. Louis, MO, cat. D2650) at 800-fold the tested concentration and stored at -70 degrees C prior to their use. All drugs and investigational agents were tested over a range starting from a high concentration at or near the clinical Cmax and decreasing in half-log increments. If the clinical Cmax for an agent had not been determined, the highest concentration tested was 10 microM.
Cell Culture. All cells were maintained in an incubator at 37 degrees C and 5% CO2 with 95% humidity. The PDC lines were cultured according to standard operating procedures established by the NCI PDMR. All PDCs were thawed and cultured in Matrigel-coated flasks prepared with a working solution of 1X Ham's F-12 nutrient mix, without supplementation (Invitrogen, Waltham, MA, cat. 11765054), 100 U/mL penicillin-streptomycin (Invitrogen, cat. 15140122), and 2.5% Matrigel (Corning Inc., Corning, NY, cat. 354248) for the first three passages. The 362531-283-R-J2-PDC and 782815-120-R-J1-PDC lines were cultured in 6C/Colon 1B media, which includes advanced DMEM/F-12 (Thermo Fisher Scientific, cat. 12634028), 10 mM HEPES (Thermo Fisher Scientific, cat. 15630080), 1X GlutaMAX supplement (Thermo Fisher Scientific, cat. 35050061), 0.1 mg/mL primocin (InvivoGen, San Diego, CA, cat. ant-pm-2), 10% defined fetal bovine serum, heat inactivated (HyClone Laboratories Inc., Logan, UT, cat. SH30070.03HI), 50% L-WRN conditioned media (ATCC, cat. CRL-3276), 1.25 mM N-Acetyl-L-cysteine (Sigma-Aldrich, cat. A9165), 10 mM nicotinamide (Sigma-Aldrich, cat. N0636), 1X B-27 supplement (Thermo Fisher Scientific, cat. 17504044), 1X N-2 supplement (Thermo Fisher Scientific, cat. 17502048), 50 ng/mL human EGF (Thermo Fisher Scientific, cat. PHG0311), and 10 microM Y-27632 dihydrochloride (Tocris Bioscience, cat. 1254). The K12877-001-R-J1-PDC line was cultured in 6I media, which includes all 6C/Colon 1B media plus 10 ng/mL human FGF-10 (PeproTech, cat. 100-26), 1 ng/mL human FGF-2 (PeproTech, cat. 100-18B), 1 µM prostaglandin E2 (Tocris Bioscience, cat. 2296), […] hydrocortisone (Sigma-Aldrich, cat. H4001), and […] bovine insulin (Sigma-Aldrich, cat. I6634). The K86415-001-R-J1-PDC line was cultured in 6D media, which includes all 6C/Colon 1B media components minus the L-WRN conditioned media. The 485176-168-R4-J1-PDC was cultured in PANC media, which includes all 6C/Colon 1B media plus 100 ng/mL human FGF-10 (PeproTech, cat. 100-26), 500 nM SB-431542 (Selleckchem, cat. S1067), and 10 nM gastrin (Tocris Bioscience, cat. 3006). […]

[1] = second compound 0.0316 µM, first compound 0.0316 µM
[2] = second compound 0.0316 µM, first compound 0.1 µM
[3] = second compound 0.0316 µM, first compound 0.316 µM
[4] = second compound 0.0316 µM, first compound 1 µM
[5] = second compound 0.0316 µM, first compound 3.16 µM
[6] = second compound 0.0316 µM, first compound 10 µM
[7] = second compound 0.1 µM, first compound 0.0316 µM
[8] = second compound 0.1 µM, first compound 0.1 µM
[9] = second compound 0.1 µM, first compound 0.316 µM
[10] = second compound 0.1 µM, first compound 1 µM
[11] = second compound 0.1 µM, first compound 3.16 µM
[12] = second compound 0.1 µM, first compound 10 µM
[13] = second compound 0.316 µM, first compound 0.0316 µM
[14] = second compound 0.316 µM, first compound 0.1 µM
[15] = second compound 0.316 µM, first compound 0.316 µM
[16] = second compound 0.316 µM, first compound 1 µM
[17] = second compound 0.316 µM, first compound 3.16 µM
[18] = second compound 0.316 µM, first compound 10 µM
[19] = second compound 1 µM, first compound 0.0316 µM
[20] = second compound 1 µM, first compound 0.1 µM
[21] = second compound 1 µM, first compound 0.316 µM
[22] = second compound 1 µM, first compound 1 µM
[23] = second compound 1 µM, first compound 3.16 µM
[24] = second compound 1 µM, first compound 10 µM
[25] = second compound 3.16 µM, first compound 0.0316 µM
[26] = second compound 3.16 µM, first compound 0.1 µM
[27] = second compound 3.16 µM, first compound 0.316 µM
[28] = second compound 3.16 µM, first compound 1 µM
[29] = second compound 3.16 µM, first compound 3.16 µM
[30] = second compound 3.16 µM, first compound 10 µM
[31] = second compound 10 µM, first compound 0.0316 µM
[32] = second compound 10 µM, first compound 0.1 µM
[33] = second compound 10 µM, first compound 0.316 µM
[34] = second compound 10 µM, first compound 1 µM
[35] = second compound 10 µM, first compound 3.16 µM
[36] = second compound 10 µM, first compound 10 µM
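Further: spheroids exposed to agents for one week before readout.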
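Wherever viability, T/C is given: percent viability relative to DMSO vehicle control wells as 100%.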

SMILES: CCC(CC)c1cc(NC2CCC(N)C2)n2nccc2n1 (stereo unspecified) + C#Cc1c(F)ccc2cc(O)cc(-c3ncc4c(N5CC6CCC(C5)N6)nc(OCC56CCCN5CC(F)C6)nc4c3F)c12
- IC50 (second compound 0.0316 µM): 1.8 µM
- IC50 (second compound 0.1 µM): 1.87 µM
- IC50 (second compound 0.316 µM): 1.88 µM
- IC50 (second compound 1 µM): 1.88 µM
- IC50 (second compound 3.16 µM): 1.9 µM
- IC50 (second compound 10 µM): 1.81 µM
- viability, T/C [1]: 99.4%
- viability, T/C [2]: 87.7%
- viability, T/C [3]: 97.2%
- viability, T/C [4]: 111%
- viability, T/C [5]: 2.83%
- viability, T/C [6]: 2.78%
- viability, T/C [7]: 91.1%
- viability, T/C [8]: 97.8%
- viability, T/C [9]: 106%
- viability, T/C [10]: 133%
- viability, T/C [11]: 2.38%
- viability, T/C [12]: 2.61%
- viability, T/C [13]: 93%
- viability, T/C [14]: 95.1%
- viability, T/C [15]: 106%
- viability, T/C [16]: 137%
- viability, T/C [17]: 2.97%
- viability, T/C [18]: 2.55%
- viability, T/C [19]: 90.4%
- viability, T/C [20]: 93.1%
- viability, T/C [21]: 116%
- viability, T/C [22]: 127%
- viability, T/C [23]: 2.97%
- viability, T/C [24]: 2.86%
- viability, T/C [25]: 100%
- viability, T/C [26]: 94.9%
- viability, T/C [27]: 116%
- viability, T/C [28]: 126%
- viability, T/C [29]: 2.6%
- viability, T/C [30]: 2.57%
- viability, T/C [31]: 86.1%
- viability, T/C [32]: 88.7%
- viability, T/C [33]: 111%
- viability, T/C [34]: 122%
- viability, T/C [35]: 0.62%
- viability, T/C [36]: 0.86%

SMILES: Cc1nc(N2CCC3(CC2)COC(C)C3N)c(CO)nc1Sc1ccnc(N)c1Cl (stereo unspecified) + C#Cc1c(F)ccc2cc(O)cc(-c3ncc4c(N5CC6CCC(C5)N6)nc(OCC56CCCN5CC(F)C6)nc4c3F)c12
- IC50 (second compound 0.0316 µM): > 10 µM
- IC50 (second compound 0.1 µM): > 10 µM
- IC50 (second compound 0.316 µM): > 10 µM
- IC50 (second compound 1 µM): > 10 µM
- IC50 (second compound 3.16 µM): > 10 µM
- IC50 (second compound 10 µM): > 10 µM
- viability, T/C [1]: 107%
- viability, T/C [2]: 92.5%
- viability, T/C [3]: 111%
- viability, T/C [4]: 80.5%
- viability, T/C [5]: 102%
- viability, T/C [6]: 92%
- viability, T/C [7]: 107%
- viability, T/C [8]: 94.7%
- viability, T/C [9]: 103%
- viability, T/C [10]: 92.6%
- viability, T/C [11]: 95.1%
- viability, T/C [12]: 90.9%
- viability, T/C [13]: 91%
- viability, T/C [14]: 114%
- viability, T/C [15]: 115%
- viability, T/C [16]: 115%
- viability, T/C [17]: 93.5%
- viability, T/C [18]: 91.5%
- viability, T/C [19]: 93.1%
- viability, T/C [20]: 112%
- viability, T/C [21]: 113%
- viability, T/C [22]: 107%
- viability, T/C [23]: 97.8%
- viability, T/C [24]: 87.3%
- viability, T/C [25]: 104%
- viability, T/C [26]: 104%
- viability, T/C [27]: 113%
- viability, T/C [28]: 88.8%
- viability, T/C [29]: 88.2%
- viability, T/C [30]: 98%
- viability, T/C [31]: 91.8%
- viability, T/C [32]: 97.1%
- viability, T/C [33]: 100%
- viability, T/C [34]: 89.8%
- viability, T/C [35]: 95.2%
- viability, T/C [36]: 85.5%

SMILES: NC1c2ccccc2OC12CCN(c1cnc3c(N4CCCc5ncccc54)n[nH]c3n1)CC2 (stereo unspecified) + C#Cc1c(F)ccc2cc(O)cc(-c3ncc4c(N5CC6CCC(C5)N6)nc(OCC56CCCN5CC(F)C6)nc4c3F)c12
- IC50 (second compound 0.0316 µM): > 10 µM
- IC50 (second compound 0.1 µM): > 10 µM
- IC50 (second compound 0.316 µM): > 10 µM
- IC50 (second compound 1 µM): > 10 µM
- IC50 (second compound 3.16 µM): > 10 µM
- IC50 (second compound 10 µM): > 10 µM
- viability, T/C [1]: 118%
- viability, T/C [2]: 88.8%
- viability, T/C [3]: 98.4%
- viability, T/C [4]: 97.3%
- viability, T/C [5]: 108%
- viability, T/C [6]: 92.7%
- viability, T/C [7]: 106%
- viability, T/C [8]: 98.1%
- viability, T/C [9]: 95.5%
- viability, T/C [10]: 108%
- viability, T/C [11]: 99.7%
- viability, T/C [12]: 109%
- viability, T/C [13]: 100%
- viability, T/C [14]: 105%
- viability, T/C [15]: 95.5%
- viability, T/C [16]: 113%
- viability, T/C [17]: 108%
- viability, T/C [18]: 113%
- viability, T/C [19]: 100%
- viability, T/C [20]: 103%
- viability, T/C [21]: 118%
- viability, T/C [22]: 109%
- viability, T/C [23]: 95.8%
- viability, T/C [24]: 118%
- viability, T/C [25]: 101%
- viability, T/C [26]: 92.2%
- viability, T/C [27]: 109%
- viability, T/C [28]: 101%
- viability, T/C [29]: 91.1%
- viability, T/C [30]: 99.7%
- viability, T/C [31]: 105%
- viability, T/C [32]: 90.1%
- viability, T/C [33]: 120%
- viability, T/C [34]: 98.8%
- viability, T/C [35]: 108%
- viability, T/C [36]: 115%
